Experimental data as given in patent US20260085101A1, “NOVEL PLATELET DERIVED GROWTH FACTOR PEPTIDE MIMETIC” (THE UNIVERSITY OF SYDNEY, priority 2022, published 2026).

What was measured:
C2C12 mouse myoblasts = test: Collagen gel contraction assay with C2C12 cells; type: cell-based; settings: for collagen gel contracted to % of its initial surface area: 24-hour incubation, 10 ng/ml PDGF, 1 μg/ml peptides, 10 μM AG1296, mean (±SD); for difference in collagen gel area versus negative control AG1296 co-treated with PDGF−AB (Mean Diff.) / difference in collagen gel area versus no treatment control (Mean Diff.): 24 hours; for difference in collagen gel area versus negative control AG1296 co-treated with PDGF−AB (Mean Diff.): vs negative control (55.25%); for difference in collagen gel area versus no treatment control (Mean Diff.): vs no treatment control (41.27%)
Text: FIG. 3. Collagen Contraction of C2C12 Mouse Fibroblasts Treated with PDGF and peptides JC5 and JC5a. […] Error bars represent ±SD, n=8/4. The function of Compounds Ia (also referred to herein as JC5) and Ib (also referred to herein as JC5a) has been tested in vitro on the continuous cell line, C2C12 mouse myoblasts. In these in vitro assays recombinant PDGF−AB and −BB have been used as positive controls along with a serum starved no treatment control and the PDGF receptor inhibitor AG1296 co-treated with PDGF−AB as a negative control. The in vitro assays were designed to assess the major known functions of PDGF whilst also considering functions that are relevant to its in vivo applications. These functions were chemotaxis, collagen contraction, vascular tube formation and activation of the PDGF receptors via phosphorylation of Akt and Erk. Collagen contraction is an important function during wound healing of many tissues including the heart. This can be simulated in vitro using a collagen gel contraction assay. This was assessed using C2C12 cells treated with the positive controls 10 ng/ml recombinant PDGF-BB and PDGF−AB, negative control 10 μM AG1296 co-treated with 10 ng/ml recombinant PDGF−AB, a serum starved no treatment control and 1 μg/ml of the peptides JC5 and JC5a. C2C12 mouse myoblasts were seeded in a 3D collagen gel crosslinked with NaOH and incubated at 37° C. for 24 hours following treatment with the four controls and peptides JC5 and JC5a.

[1] = system: C3H10T½ mouse embryonic fibroblasts; test: EdU proliferation assay (flow cytometry); type: cell-based; settings: C3H10T½ cells, 1% FBS; for stimulation of the PDGF ligand/receptor pathway inferred from inhibition of EdU levels by AG1296 cotreatment: cotreatment with 10 μM AG1296; for stimulation of proliferation relative to 1% FBS: 24 hr, 20 ng/ml PDGF, 2 μg/ml peptides
Experimental: FIG. 8. Proliferation of C3H10T½ Cells Following Treatment with PDGF and Novel PDGF Mimetic Peptides. Cultured C3H10T½ mouse embryonic fibroblast cells were treated with 20 ng/ml recombinant PDGF−AB or PDGF−BB protein ligands, and 2 μg/ml of novel PDGF mimetics JC5 or JC5a for 24 hr, in the presence of 1% fetal bovine serum (FBS). Percent proliferating cell was determined after a 2 hr pulse with nucleotide analogue EdU at the end of the incubation period. […] Co-treatment of protein/peptides with 10 μM of PDGF receptor antagonist, AG1296, confirmed that PDGF-BB-stimulated proliferation occurred via the PDGF ligand/receptor pathway. […] Error bars represent ±SD, n=3. Statistical analysis was using One-Way Anova: * p<0.05; ** p<0.01; *** p<0.001; **** p<0.0001. The mitotic effects of PDGF mimetic peptides JC5 and JC5a were tested using cultured C3H10T½ mouse embryonic fibroblasts. Proliferation was assayed after a pulse of nucleotide analogue 5-ethynyl-2′-deoxyuridine (EdU) and fluorescent detection using flow cytometry. Cells were treated with 20 ng/ml PDGF−BB or PDGF−AB, and 2 μg/ml of peptides JC5 or JC5a, in the presence of 1% fetal bovine serum (FBS) and DMEM for 24 hr. 10% FBS was used as a positive control, and co-treatments with specific PDGF receptor antagonist, AG1296, was used to ascertain whether proliferation occurred via the PDGF ligand/receptor pathway. Assays were performed in biological triplicate.

C57BL6/J mice = test: Murine model of acute myocardial infarction (permanent LAD occlusion), echocardiography and heart weight/tibia length; type: in vivo, mouse; settings: for average day 2 to day 28 Δ ejection fraction: change from day 2 to day 28; for day 28 ejection fraction / decrease in ESV versus PBS (MI) cohort (mean diff.) / mean heart weight/tibia length / mean end systolic volume (ESV) at day 28 / mean end diastolic volume (EDV) at day 28: mice; for day 28 ejection fraction: 28 days post MI, 60 μg/kg PDGF−AB or 32.50 mg/kg peptide via implanted minipump, mean (±SD), PBS 26.89%; for decrease in ESV versus PBS (MI) cohort (mean diff.) / mean heart weight/tibia length / mean end systolic volume (ESV) at day 28 / mean end diastolic volume (EDV) at day 28: day 28 post MI; for mean heart weight/tibia length: PBS 0.01913; for mean end systolic volume (ESV) at day 28 / mean end diastolic volume (EDV) at day 28: minipump; for mean end systolic volume (ESV) at day 28: PBS 116.6 μL; for mean end diastolic volume (EDV) at day 28: PBS 155.9 μL
Text: FIG. 9: Improved Cardiac function at Day 28 Post Myocardial Infarction. […] C) A decrease in end diastolic volumes was also observed in PDGF−AB (p=0.0016) and JC5 (p=0.0185) treated mice versus PBS. […] E) Timeline of mean EF per treatment group. Baseline indicates the pre-infarct EF per group. Day 2 and day 28 indicates days post infarct. A-C) Error bars represent ±SD. D) Data presented as median ±minimum and maximum values. One way ANOVA comparing all groups to the PBS vehicle control group (n=10/11).
FIG. 11: Decreased Heart Weight/Tibia Length in Mice Treated with JC5. […] Error bars represent ±SD.
Cardiac function was monitored using echocardiography with a post MI baseline at day 2 and a day 28 end point followed by tissue collection and calculation of heart weight divided by tibia length. Mice were randomised into treatment groups receiving either 60 μg/kg of the positive control recombinant human PDGF−AB, 32.50 mg/kg of novel mimetic peptide JC5, 32.50 mg/kg of novel mimetic peptide JC5a, or phosphate buffered saline (PBS) as a vehicle control, via implanted minipump, at the time of infarction. In addition to this sham controls were included using non-infarcted healthy mice receiving either 32.50 mg/kg of novel mimetic peptide JC5 or 32.50 mg/kg of novel mimetic peptide JC5a.
Left ventricular ejection fraction (LVEF) is directly proportionate to the difference between left ventricle end diastolic volume and the left ventricular end systolic volume (LVEDV-LVESV) and inversely proportionate to left ventricular end diastolic volume (LVEDV). The value is created by the following equation LVEF=(LVEDV-LVESV)/LVEDV. Increased end diastolic volume (EDV) indicates possible dilation of the ventricle whilst increased end systolic volume (ESV) indicates a possible decrease in contractile function. In mice treated with positive control PDGF−AB (MI) and novel mimetic peptide JC5 (MI) there was a significant decrease in both ESV and EDV at day 28 when compared to the vehicle control, PBS (MI), cohort. The decreased ESV of the PDGF−AB (MI) cohort at day 28 aligned with what was expected of the positive control with a mean ESV of 55.04 μL (±23.66), […] (mean diff.) less than the PBS (MI) cohort (p=0.0003). […] These were both a significant decrease from the PBS (MI) cohort with a mean EDV of 155.9 μL (±47.15) (JC5 p=0.0185, PDGF−AB p=0.0016).

Compound | collagen gel contracted to % of its initial surface area (C2C12 mouse myoblasts) [%] | difference in collagen gel area versus negative control AG1296 co-treated with PDGF−AB (Mean Diff.) (C2C12 mouse myoblasts) [%] | difference in collagen gel area versus no treatment control (Mean Diff.) (C2C12 mouse myoblasts) [%] | stimulation of the PDGF ligand/receptor pathway inferred from inhibition of EdU levels by AG1296 cotreatment [1] | stimulation of proliferation relative to 1% FBS [1] | average day 2 to day 28 Δ ejection fraction (C57BL6/J mice; mice post MI) [%] | day 28 ejection fraction (C57BL6/J mice) [%] | decrease in ESV versus PBS (MI) cohort (mean diff.) (C57BL6/J mice) [µL] | mean heart weight/tibia length (C57BL6/J mice) | mean end systolic volume (ESV) at day 28 (C57BL6/J mice) [µL] | mean end diastolic volume (EDV) at day 28 (C57BL6/J mice) [µL] | day 2 to day 28 change in ejection fraction greater than PBS (MI) (mean diff.) (C57BL6/J mice; mice post MI, vs PBS vehicle control) [%]
PDGF Loop III dimer HSA (CVRKIEIVRKK)2(Peg3)2EYEK(Palm)EYE-C′ [JC5] | 23.01 | 32.23 | 18.26 | weak stimulation of the PDGF ligand/receptor pathway | did not significantly stimulate proliferation | 6.686 | 42.06 | 49.58 | 0.01462 | 67.01 | 108.6 | –
CCCCCCCCCCCCCCCC(=O)NCCCC[C@H](NC(=O)[C@H](CCC(=O)O)NC(=O)[C@H](Cc1ccc(O)cc1)NC(=O)[C@@H](CCC(=O)O)NC(=O)CCOCCOCCOCCNC(=O)CCOCCOCCOCCNC(=O)[C@@H](CCCCN)NC(=O)[C@@H](CCCCN)NC(=O)[C@@H](CCCNC(=N)N)NC(=O)[C@@H](NC(=O)[C@@H](NC(=O)[C@H](CCC(=O)O)NC(=O)[C@@H](NC(=O)[C@H](CCCCN)NC(=O)[C@@H](CCCNC(=N)N)NC(=O)[C@H](NC(=O)[C@H](N)CSSC[C@@H](N)C(=O)N[C@@H](C(=O)N[C@H](CCCNC(=N)N)C(=O)N[C@@H](CCCCN)C(=O)N[C@H](C(=O)N[C@@H](CCC(=O)O)C(=O)N[C@H](C(=O)N[C@H](C(=O)N[C@H](CCCNC(=N)N)C(=O)N[C@H](CCCCN)C(=O)N[C@H](CCCCN)C(=O)NCCOCCOCCOCCC(=O)NCCOCCOCCOCCC(=O)N[C@H](CCC(=O)O)C(=O)N[C@@H](Cc1ccc(O)cc1)C(=O)N[C@@H](CCC(=O)O)C(=O)N[C@@H](CCCCNC(=O)CCCCCCCCCCCCCCC)C(=O)N[C@@H](CCC(=O)O)C(=O)N[C@@H](Cc1ccc(O)cc1)C(=O)N[C@@H](CCC(=O)O)C(N)=O)C(C)C)[C@H](C)CC)[C@@H](C)CC)C(C)C)C(C)C)[C@@H](C)CC)[C@H](C)CC)C(C)C)C(=O)N[C@@H](CCC(=O)O)C(=O)N[C@@H](Cc1ccc(O)cc1)C(=O)N[C@@H](CCC(=O)O)C(N)=O [JC5a, PDGF Loop III dimer USA dimer (CVRKIEIVRKK)2(Peg3)2(EYEK(Palm)EYE)2-C′] | 33.28 | 21.96 | – | – | did not significantly stimulate proliferation | 10.82 | 39.24 | – | – | – | – | 18.02
PDGF−AB: recombinant human PDGF−AB, AB heterodimer of recombinant PDGF, positive control | 22.46 | 32.79 | 18.82 | weak stimulation of the PDGF ligand/receptor pathway | did not significantly stimulate proliferation | 7.104 | 43.44 | 61.54 | 0.01344 | 55.04 | 93.75 | –
